Experimental findings from ChEMBL document CHEMBL4007425, “Drug Repurposing of Histone Deacetylase Inhibitors That Alleviate Neutrophilic Inflammation in Acute Lung Injury and Idiopathic Pulmonary Fibrosis via Inhibiting Leukotriene A4 Hydrolase and Blocking LTB4 Biosynthesis” (J Med Chem, 2017) are described below.

Data set [1] deals with Mus musculus. Briefly: Anti-inflammatory activity in BLM-induced C57BL/6 mouse model of acute lung neutrophilic inflammation assessed as reduction in macrophage number in BALF at 25 and 50 mg/kg, ip qd for 7 days post BLM challenge measured on day 7. The class given is functional, organism-based.
Data set [2] deals with Mus musculus. In words: Anti-inflammatory activity in BLM-induced C57BL/6 mouse model of acute lung neutrophilic inflammation assessed as MPO activity at 50 mg/kg, ip qd for 7 days post BLM challenge measured on day 7 (reference value: 0.98 U/g). The class given is functional.
For data set [3], the system named is Mus musculus. Briefly: Anti-inflammatory activity in LPS-induced C57BL/6 mouse model of acute lung injury assessed as reduction in IL-1beta mRNA level pretreated intraperitoneally for 1 hr followed LPS challenge after 24 hrs by qRT-PCR method. It is filed as functional.
Data set [4] has as its system Mus musculus. In words: Anti-inflammatory activity in LPS-induced C57BL/6 mouse model of acute lung injury assessed as reduction in IL-6 mRNA level pretreated intraperitoneally for 1 hr followed LPS challenge after 24 hrs by qRT-PCR method. It is filed as functional.
Data set [5] has as its system Mus musculus. Briefly: Anti-inflammatory activity in LPS-induced C57BL/6 mouse model of acute lung injury assessed as reduction in pulmonary edema by measuring lung wet and dry ratio at 10 to 50 mg/kg, ip pretreated for 1 hr followed LPS challenge after 24 hrs. The class given is functional, organism-based.
Data set [6] has as its system Mus musculus. In words: Anti-inflammatory activity in LPS-induced C57BL/6 mouse model of acute lung injury assessed as reduction in IL-1beta level pretreated intraperitoneally for 1 hr followed LPS challenge after 24 hrs by ELISA. The class given is functional. (In general: An ELISA detects its analyte on a solid surface through an enzyme-linked reagent.)
In data set [7] the test system is Plasma. In words: Plasma concentration in mouse by liquid chromatography mass spectrometry. It is filed as ADME, cell-free.
For data set [8], the system named is Mus musculus. Briefly: Anti-inflammatory activity in LPS-induced C57BL/6 mouse model of acute lung injury assessed as reduction in protein concentration in BALF at 10 to 50 mg/kg, ip pretreated for 1 hr followed LPS challenge measured after 24 hrs. The class given is functional, organism-based.
For data set [9], the system named is Mus musculus. In words: Anti-inflammatory activity in LPS-induced C57BL/6 mouse model of acute lung injury assessed as reduction in total number of leucocytes in BALF at 10 to 50 mg/kg, ip pretreated for 1 hr followed LPS challenge measured after 24 hrs. It is filed as functional, organism-based.
Data set [10] deals with Mus musculus. In words: Anti-inflammatory activity in BLM-induced C57BL/6 mouse model of acute lung neutrophilic inflammation assessed as protein concentration in BALF at 50 mg/kg, ip qd for 7 days post BLM challenge measured on day 7 (reference value: 2.39 mg/ml). The class given is functional.
The subject of data set [11] is Mus musculus. In words: Anti-inflammatory activity in BLM-induced C57BL/6 mouse model of acute lung neutrophilic inflammation assessed as reduction in number of neutrophils in BALF at 25 and 50 mg/kg, ip qd for 7 days post BLM challenge measured on day 7. It is filed as functional, organism-based.
Data set [12] deals with Mus musculus. In words: Protection against BLM-induced lung fibrosis in C57BL/6 mouse assessed as reduction in deposition of collagen fibers at 25 and 50 mg/kg, ip qd for 7 days post BLM challenge measured on day 7 by Massons trichrome staining based method. It is filed as functional, organism-based.
In data set [13] the test system is Mus musculus. In words: Protection against BLM-induced lung fibrosis in C57BL/6 mouse assessed as TGF-beta1 level at 25 and 50 mg/kg, ip qd for 7 days post BLM challenge measured on day 7 by qRT-PCR method. The class given is functional, organism-based.
Data set [14] concerns Mus musculus. Briefly: Protection against BLM-induced lung fibrosis in C57BL/6 mouse assessed as TGF-beta1 level at 10 and 25 mg/kg, ip qd for 7 days post BLM challenge measured on day 14 by qRT-PCR method. The class given is functional, organism-based.
In data set [15] the test system is Mus musculus. In words: Protection against BLM-induced lung fibrosis in C57BL/6 mouse assessed as reduction in hydroxyproline level at 25 mg/kg, ip qd for 7 days post BLM challenge measured on day 14. It is filed as functional. To be noted: C57BL/6, ip.

Calls of active or inactive are those of the source. The rule behind the calls is not given here.

For the molecule `O=C(CCCCCCC(=O)Nc1ccccc1)NO` [VORINOSTAT], the outcome in [1], in data set [5], in data set [8], in data set [9], in data set [11] and in [12] was Active. For the same molecule, in data set [13], the outcome was Active. For the same molecule, the Activity is 0.67 U/g in data set [2]; “Dose-dependent effect” in [3]; “Dose-dependent effect” in data set [4]; “Dose-dependent effect” in [6]; 1.79 mg/mL in data set [10]. This molecule had a concentration in data set [7] of 1 to 10 µM.
Consider `CN(C)c1ccc(C(=O)NCCCCCCC(=O)NO)cc1`, for which the outcome in data set [14] was Active. Also, the inhibition in vivo at 25 mg/kg in data set [15] amounted to 34%.

As a reminder, the inhibition in vivo is the change of the read-out against control, counted positive when it falls.
